# Experimental data: patent US20180346505A1, “MONONUCLEOTIDES HAVING A BIOREVERSIBLE DISULFIDE GROUP” (priority 2014, published 2018)
# “And” between values parts separate entries of the source, which are not always exact repeats. Identical values can stand only once. Like-named read-outs stand apart in the source and are kept apart here.
# Tests used:
# [1] = test system: GT1a L159F NS5B mutant replicon; assay: HCV NS5B mutant replicon assay, GT1a L159F; type: cell-based; conditions: Hepatitis C virus, Huh-7, 72 h, read-out: GT1a L159F EC50
# Protocol: (§1) The antiviral activity of the test compounds was assessed in the wild type GT1b (Con1), GT1a (H77), and GT1b/2a, GT1b/3a, GT1b/4a and GT1b/5a NS5B chimeric replicons, as well as the NS5B mutant replicons listed in Table 2a and 2b.
# (§2) The HCV replicon mutants were generated by site-directed mutagenesis (SDM). The SDM was performed by PCR and the PCR fragments were inserted into the backbone replicon construct. The inserted PCR fragments and the mutants were confirmed by sequencing.
# (§3) All the replicon assays were luciferase based in Huh-7 cells, either in stable format (GT1b and GT1a) or by transient transfection by electroporation (chimeric and mutant replicons). For a standard HCV replicon assay, stable or transiently transfected Huh-7 cells were seeded in 96-well plates (5,000 cells/well), cultured in DMEM containing 10% FBS, and incubated at 37° C., 5% CO2. On the following day, test compounds were diluted with assay media and added to the appropriate wells (final DMSO concentration in the cell culture medium was 0.5%). Assay reference positive control was included in each run to ensure assay performance. Cells were incubated at 37° C., 5% CO2 for 72 hours, at which time the cells were still sub-confluent. The antiviral activity was determined by measuring replicon reporter firefly luciferase activity using Bright Glo kit in accordance with the protocol provided by the supplier (Promega). The toxicity of the test compounds was assessed by CytoTox-1 cell proliferation assay (Promega). The half maximal effective concentration (EC50) and the half maximal toxic concentration (TC50) values were calculated using the GraphPad Prism software.
# [2] = test system: GT1b/4a NS5B chimeric replicon; assay: HCV replicon assay, GT1b/4a NS5B chimeric replicon, transient transfection; type: cell-based, hepatitis C virus
# Protocol: as §1
# (§4) To generate HCV NS5B chimeric replicons, the GT1 b replicon was used as a backbone with the NS5B gene replaced with the NS5B gene of GT2a, GT3a, GT4a and GT5a derived from clinical isolates. These NS5B genes were cloned into the GT1b backbone and were confirmed by sequencing.
# as §3
# GT1b (Con1) HCV replicon = assay: HCV replicon assay, wild type GT1b (Con1), luciferase based, stable format; type: cell-based, hepatitis C virus; conditions: Huh-7 cells, 72 hours
# Protocol: as §1, §3
# Huh-7 cells = assay: Toxicity by CytoTox-1 cell proliferation assay (TC50) and selectivity index; type: cell-based; conditions: TC50 by CytoTox-1 cell proliferation assay over replicon EC50, Huh-7 cells
# Protocol: as §3
# [3] = test system: GT1b/3a NS5B chimeric replicon; assay: HCV replicon assay, GT1b/3a NS5B chimeric replicon, transient transfection; type: cell-based, hepatitis C virus; conditions: read-out: GT3a EC50; GT1b/3a NS5B chimeric replicon, Huh-7 cells, luciferase, 72 hours
# Protocol: as §1, §4, §3
# [4] = test system: GT1b S282T NS5B mutant replicon; assay: HCV NS5B mutant replicon assay, GT1b S282T; type: cell-based; conditions: Hepatitis C virus, Huh-7, 72 h, read-out: GT1b S282T EC50
# Protocol: as §1, §2, §3
# [5] = test system: GT3a L159F NS5B mutant replicon; assay: HCV NS5B mutant replicon assay, GT3a L159F; type: cell-based; conditions: Hepatitis C virus, Huh-7, 72 h, read-out: GT3a L159F EC50
# Protocol: as §1, §4, §2, §3
# [6] = test system: GT3a S282T NS5B mutant replicon; assay: HCV NS5B mutant replicon assay, GT3a S282T; type: cell-based; conditions: Hepatitis C virus, Huh-7, 72 h, read-out: GT3a S282T EC50
# Protocol: as §1, §4, §2, §3
# [7] = test system: GT1b/5a NS5B chimeric replicon; assay: HCV replicon assay, GT1b/5a NS5B chimeric replicon, transient transfection; type: cell-based, hepatitis C virus
# Protocol: as §1, §4, §3
# [8] = Nucleoside phosphoester stability in simulated gastric fluid; type: in vitro ADME; conditions: simulated gastric fluid pH 1.2, 2 μM, 37° C.
# Protocol: Test compounds at 2 μM were incubated at 37° C. with simulated gastric fluid (SGF, 0.2% (w/v) sodium chloride in 0.7% (v/v) hydrochloric acid, deionized water, 0.3% pepsin (w/v), pH 1.2). Duplicate samples were used. Samples were removed at 0, 15, 30, 60, 120, 360 and 1440 min, immediately mixed with cold acetonitrile containing internal standard (IS), and stored at −80° C. before analysis. Omeprazole was used as a positive control. Samples were analyzed by LC/MS/MS method, and disappearance of test compound was assessed by comparison of peak area ratios of analyte/IS and reported as % test compound remaining at each time point.
# GT1a (H77) HCV replicon = assay: HCV replicon assay, wild type GT1a (H77), luciferase based, stable format; type: cell-based, hepatitis C virus; conditions: Huh-7 cells
# Protocol: as §1, §3
# [9] = test system: GT1b L159F NS5B mutant replicon; assay: HCV NS5B mutant replicon assay, GT1b L159F; type: cell-based; conditions: Hepatitis C virus, Huh-7, 72 h, read-out: GT1b L159F EC50
# Protocol: as §1, §2, §3
# [10] = test system: GT1b S96T NS5B mutant replicon; assay: HCV NS5B mutant replicon assay, GT1b S96T; type: cell-based; conditions: Hepatitis C virus, Huh-7, 72 h, read-out: GT1b S96T EC50
# Protocol: as §1, §2, §3
# [11] = test system: GT1a S282T NS5B mutant replicon; assay: HCV NS5B mutant replicon assay, GT1a S282T; type: cell-based; conditions: Hepatitis C virus, Huh-7, 72 h, read-out: GT1a S282T EC50
# Protocol: as §1, §2, §3
# [12] = Nucleoside phosphoester stability in simulated intestinal fluid; type: in vitro ADME; conditions: simulated gi fluid, 2 μM, pH 6.8
# Protocol: Test compounds at 2 μM were incubated at 37° C. with simulated intestinal fluid (SIF), which contains 0.68% (w/v) monobasic potassium phosphate and 1% (w/v) pancreatin in ultra-pure water (pH 6.8). Duplicate samples were used. Samples were removed at 0, 15, 30, 60, 120, 360 and 1440 min, immediately mixed with cold acetonitrile containing an internal standard (IS), and stored at −80° C. before analysis. Chlorambucil was used as a positive control. Samples were analyzed by a LC/MS/MS method, and disappearance of test compound was assessed by comparison of peak area ratios of analyte/IS and reported as % test compound remaining at each time point.
# [13] = test system: GT3a V321A NS5B mutant replicon; assay: HCV NS5B mutant replicon assay, GT3a V321A; type: cell-based; conditions: Hepatitis C virus, Huh-7, 72 h, read-out: GT3a V321A EC50
# Protocol: as §1, §4, §2, §3
# [14] = test system: GT1b C316N NS5B mutant replicon; assay: HCV NS5B mutant replicon assay, GT1b C316N; type: cell-based; conditions: Hepatitis C virus, Huh-7, 72 h, read-out: GT1b C316N EC50
# Protocol: as §1, §2, §3
# [15] = test system: GT1b/2a NS5B chimeric replicon; assay: HCV replicon assay, GT1b/2a NS5B chimeric replicon, transient transfection; type: cell-based, hepatitis C virus
# Protocol: as §1, §4, §3
# [16] = read-out: GT4a EC50, GT1b/4a NS5B chimeric replicon, Huh-7 cells, luciferase, 72 hours
# [17] = read-out: GT5a EC50, GT1b/5a NS5B chimeric replicon, Huh-7 cells, luciferase, 72 hours
# [18] = read-out: GT2a EC50, GT1b/2a NS5B chimeric replicon, Huh-7 cells, luciferase, 72 hours
SMILES,EC50 (GT1b (Con1) HCV replicon),Selectivity Index (TC50/EC50) (Huh-7 cells),EC50 [3],% Remaining ([8]; 0 min),% Remaining ([8]; 15 min),% Remaining ([8]; 30 min),% Remaining ([8]; 60 min),% Remaining ([8]; 120 min),% Remaining ([8]; 360 min),% Remaining ([8]; 1440 min),% Remaining ([12]; 0 h),% Remaining ([12]; 0.25 h),% Remaining ([12]; 0.5 h),% Remaining ([12]; 1 h),% Remaining ([12]; 2 h),% Remaining ([12]; 6 h),% Remaining ([12]; 24 h),"EC50 [2, 16]","EC50 [7, 17]",EC50 (GT1a (H77) HCV replicon; 72 hours),also measured
"CC(C)(C)SSc1ccccc1CCOP1(=O)OC[C@H]2O[C@@H](n3ccc(N)nc3=O)[C@](C)(F)[C@@H]2O1 (single isomer, unassigned) [Compound 9A]",0.007 µM and 0.004 to 0.005 µM,>500,0.006 µM and 0.004 to 0.006 µM,100.00%,107.89%,102.51%,97.63%,94.89%,91.06%,76.22%,100.00%,99.21%,103.81%,103.14%,109.48%,101.64%,98.27%,–,–,–,"EC50 [1]: 0.01 µM; EC50 ([2]; Hepatitis C virus, Huh-7, 72 h, read-out: GT4a EC50, GT1b/4a NS5B chimeric replicon, Huh-7 cells, luciferase, 72 hours): 0.003 µM; EC50 [4]: 0.023 to 0.025 µM; EC50 [5]: 0.008 µM; EC50 [6]: 0.006 to 0.018 µM; EC50 ([7]; Hepatitis C virus, Huh-7, 72 h, read-out: GT5a EC50, GT1b/5a NS5B chimeric replicon, Huh-7 cells, luciferase, 72 hours): 0.002 µM; EC50 (GT1a (H77) HCV replicon; Hepatitis C virus, GT1A, Huh-7, 72 h): 0.003 to 0.006 µM; EC50 [9]: 0.009 µM; EC50 [10]: 0.007 µM; EC50 [11]: 0.006 to 0.035 µM; EC50 [13]: 0.012 µM; EC50 [14]: 0.004 µM; EC50 ([15]; Hepatitis C virus, Huh-7, 72 h, read-out: GT2a EC50, GT1b/2a NS5B chimeric replicon, Huh-7 cells, luciferase, 72 hours): 0.003 µM"
"CC(C)(C)SSc1ccccc1CCOP1(=O)OC[C@H]2O[C@@H](n3ccc(N)nc3=O)[C@](C)(F)[C@@H]2O1 (single isomer, unassigned) [Compound 9B]",0.013 µM,>500,0.029 µM,100.00%,95.72%,98.51%,100.39%,92.48%,65.99%,21.04%,100.00%,98.51%,91.63%,99.30%,97.42%,72.51%,33.69%,–,–,–,–
"CC(C)(C)SSc1ccccc1CCOP1(=O)OC[C@H]2O[C@@H](n3ccc(N)nc3=O)[C@](C)(N)[C@@H]2O1 (single isomer, unassigned) [Compound 19B]",1.03 µM,–,1.34 µM,–,–,–,–,–,–,–,–,–,–,–,–,–,–,0.344 µM,1.35 µM,0.858 µM,"EC50 [15, 18]: 0.78 µM"
"CC(C)(C)SSc1ccccc1CCOP1(=O)OC[C@H]2O[C@@H](n3ccc(N)nc3=O)[C@](C)(N)[C@@H]2O1 (single isomer, unassigned) [Compound 19A]",0.177 µM,–,0.228 µM,–,–,–,–,–,–,–,–,–,–,–,–,–,–,0.077 µM,0.288 µM,0.169 µM,"EC50 [15, 18]: 0.151 µM"
